Measured values published in patent US20190030114A1, “ISOFORM-SPECIFIC CALPAIN INHIBITORS, METHODS OF IDENTIFICATION, AND USES THEREOF” (WESTERN UNIVERSITY OF HEALTH SCIENCES, priority 2014, published 2019).
Where two headings read alike, the source gives them in different places.

Tests used:
calpain-2 [1] = biological target: T1, calpain-2 (Homo sapiens, UniProt P17655); conditions: Li et al, 1996; read-out: Ki for calpain-2 (m-calpain), literature; cited from earlier work
T1 sequence (P17655 1-700): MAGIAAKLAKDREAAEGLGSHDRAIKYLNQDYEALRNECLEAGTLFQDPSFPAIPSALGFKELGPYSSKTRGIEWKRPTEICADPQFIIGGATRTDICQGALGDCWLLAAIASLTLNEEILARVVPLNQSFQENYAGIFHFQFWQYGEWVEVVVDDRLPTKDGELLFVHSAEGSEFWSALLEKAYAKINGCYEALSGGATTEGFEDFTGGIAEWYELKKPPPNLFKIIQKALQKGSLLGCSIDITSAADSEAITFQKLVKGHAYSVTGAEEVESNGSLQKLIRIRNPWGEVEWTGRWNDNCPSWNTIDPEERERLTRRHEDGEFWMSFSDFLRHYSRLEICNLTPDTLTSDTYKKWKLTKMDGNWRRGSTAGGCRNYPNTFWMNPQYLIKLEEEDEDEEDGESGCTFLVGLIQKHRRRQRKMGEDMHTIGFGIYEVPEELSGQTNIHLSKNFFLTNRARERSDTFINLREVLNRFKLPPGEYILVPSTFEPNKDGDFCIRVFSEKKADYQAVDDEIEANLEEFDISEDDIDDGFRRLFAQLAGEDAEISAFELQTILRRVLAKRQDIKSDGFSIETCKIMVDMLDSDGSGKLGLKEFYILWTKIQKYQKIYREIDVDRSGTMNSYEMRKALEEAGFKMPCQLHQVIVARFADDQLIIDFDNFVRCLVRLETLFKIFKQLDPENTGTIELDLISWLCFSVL
T1 sequence (P04632 1-268 partner): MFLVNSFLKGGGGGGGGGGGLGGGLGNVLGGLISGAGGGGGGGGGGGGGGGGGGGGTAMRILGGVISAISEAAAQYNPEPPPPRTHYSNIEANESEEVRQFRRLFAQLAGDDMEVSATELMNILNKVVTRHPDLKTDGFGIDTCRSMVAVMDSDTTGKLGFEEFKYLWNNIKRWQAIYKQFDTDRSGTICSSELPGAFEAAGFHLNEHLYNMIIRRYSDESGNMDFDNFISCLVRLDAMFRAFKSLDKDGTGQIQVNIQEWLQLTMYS

[2] = system: cortical neuronal cultures (14 DIV); experiment: neuronal death mediated by extrasynaptic NMDA receptor activation; assay type: cell-based; conditions: dose-dependent from 200 nM to 5 μM
Method: Results are expressed as percent of neurons positively stained with the Hoechst reagent and are means±S.E.M. of 3-4 experiments (*p<0.01, Student's t-test).
A selective calpain-2 inhibitor blocks neuronal death mediated by extrasynaptic NMDA receptor activation. Cortical neuronal cultures (14 DIV) were treated to induce selective activation of extrasynaptic NMDA receptors, which results in neuronal cell death.

calpain-1 = biological target: T2, calpain-1 (Homo sapiens, UniProt P07384); experiment: in vitro calpain-1 inhibition, succinic-Leu-Tyr-AMC substrate; assay type: biochemical
T2 sequence (P07384 1-714): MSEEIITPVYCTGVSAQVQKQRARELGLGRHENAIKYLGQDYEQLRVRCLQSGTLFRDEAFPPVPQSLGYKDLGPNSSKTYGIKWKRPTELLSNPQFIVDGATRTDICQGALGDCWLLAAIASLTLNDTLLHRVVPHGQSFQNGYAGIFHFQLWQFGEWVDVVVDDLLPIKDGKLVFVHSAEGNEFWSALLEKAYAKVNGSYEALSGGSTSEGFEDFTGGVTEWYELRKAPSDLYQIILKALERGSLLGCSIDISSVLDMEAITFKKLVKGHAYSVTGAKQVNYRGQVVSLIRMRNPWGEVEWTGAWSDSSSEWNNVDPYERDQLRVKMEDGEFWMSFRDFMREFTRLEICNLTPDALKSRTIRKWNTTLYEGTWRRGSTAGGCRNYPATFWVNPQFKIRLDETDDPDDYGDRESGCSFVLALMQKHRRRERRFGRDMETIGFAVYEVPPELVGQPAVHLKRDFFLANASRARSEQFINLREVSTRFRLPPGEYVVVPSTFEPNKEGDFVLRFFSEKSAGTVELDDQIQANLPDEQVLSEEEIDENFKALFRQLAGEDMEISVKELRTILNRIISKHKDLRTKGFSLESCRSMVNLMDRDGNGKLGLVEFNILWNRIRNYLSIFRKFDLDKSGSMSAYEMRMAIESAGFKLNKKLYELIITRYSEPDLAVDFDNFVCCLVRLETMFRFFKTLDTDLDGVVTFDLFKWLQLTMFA
T2 sequence (P04632 1-268 partner): T1 sequence (P04632 1-268 partner)
Method: (§1) Formula 1, where chiral center 1 is the L-form and chiral center 2 is a racemic mixture of D- and L- in this example was introduced at various concentrations (from 1 nM to 10 μM) into an in vitro mix comprising succinic-Leu-Tyr-AMC and calpain-1 or calpain-2 (Sasaki et al, 1984), and the kinetics of the loss of fluorescence were determined for each of the calpains (Powers et al, 2000). […] Therefore, the assessment of selectivity described herein was different than the prior teaching.
(§2) Formula 1A, where chiral center 1 is the S-form and chiral center 2 is the S-form was separated from the S-R-form (Formula 1B) using methods that are well-known methods for separating diastereoisomers. Formula 1A, which is also referred to herein as compound 18A, in this example was introduced at various concentrations into an in vitro mix comprising succinic-Leu-Tyr-AMC and μ-calpain or m-calpain (Sasaki et al, 1984), and the kinetics of the loss of fluorescence were determined for each of the calpains.

calpain-2 [3] = biological target: T1, calpain-2; experiment: in vitro calpain-2 inhibition, succinic-Leu-Tyr-AMC substrate; assay type: biochemical
Method: as §1, §2

Q: Which Ki (calpain-2 [1]) does the source give for `CCC(NC(=O)C(CC(C)C)NC(=O)OCc1ccccc1)C(=O)C(=O)NCc1cc(OC)cc(OC)c1` (racemic) [Formula 1, Z-Leu-Abu-CONH—CH2-C6H3 (3, 5-(OMe)2)] here?
A: The Ki was 0.022 µM.

Q: And the “neuronal cell death associated with extrasynaptic NMDA receptor activation” value [2]?
A: The value was “reduced the neuronal cell death”.

Q: What about the “neuronal cell death associated with extrasynaptic NMDA receptor activation” value ([2]; listed as Formula I) of the same compound?
A: The value was “reduced neuronal cell death”.

Q: And the Ki (calpain-1; Example 1, chiral center 2 racemic, read-out: Ki of calpain-1, re-determined herein)?
A: Its Ki is 1.29 µM.

Q: What about the Ki (calpain-1; Example 13, n = 3-5, read-out: Ki Calpain-1) of the same compound?
A: Its Ki is 0.662 µM.

Q: And the Ki (calpain-1; earlier value, unit inferred, read-out: Previous Value (Calpain-1))?
A: The Ki was 0.94 µM.

Q: And the IC50 (calpain-1; n = 3-5)?
A: The IC50 was 0.91 µM.

Q: What about the “Ratio KiCalpain-1/KiCalpain-2” value (calpain-2 [3]) of the same compound?
A: The value was 31.1.

Q: And the Ki (calpain-2 [3]; Example 1, chiral center 2 racemic, read-out: Ki for calpain-2, determined herein)?
A: Its Ki is 0.025 µM.

Q: And the Ki (calpain-2 [3]; Example 13, n = 3-4, read-out: Ki Calpain-2)?
A: The Ki was 0.0213 µM.

Q: And the IC50 (calpain-2 [3]; n = 3-4)?
A: The IC50 was 0.21 µM.
